Assay [1] in a line: M. tuberculosis H37Rv growth inhibitors, H37Rv strain (AID 1626). Format: functional.
In assay [2] the test system is HEK293. As to the kind of experiment: EBV LMP1 TES2 canonical NF-kB signalling blockers – cell-based, HEK293, luciferase, cherry-pick, dose response (AID 588343). It is filed as functional. The settings on record: Homo sapiens.
A short description of assay [3]: cells. It is filed as functional, cell-based.
Assay [4] can be described thus: cells. It is filed as functional, cell-based. This is another data set of the same source.
Assay [5] in a line: NIH3T3 cell viability loss – ATP luminescence, mouse fibroblasts, counter-screen, dose response (AID 2010).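 Also: cells exposed to compound for about 90 hours before reading.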 Format: functional, cell-based. A general note: The purpose of a counterscreen is to sort out artefacts and off-target activity.
Assay [6] deals with Latent membrane protein 1 (Human herpesvirus 4 (strain B95-8), UniProt P03230). As to the kind of experiment: LMP1 TES1 pathway selectivity over dsRED control – imaging, HEK293T, dual-color eGFP/dsRED, cherry-picks, selectivity assay for LMP1 NF-kB inhibitor project, dose response (AID 588398). Format: functional, cell-based.
In assay [7] the target is Induced myeloid leukemia cell differentiation protein Mcl-1 (Homo sapiens, UniProt Q07820). As to the kind of experiment: blockers of MCL1 binding to BIM peptide – biochemical, fluorescence polarization, BIM-BH3 peptide, 1536-well, dose response (AID 2217).
A short description of assay [8]: Trypanosoma cruzi growth suppression in host cells – NIH3T3 host cells, beta-gal luminescence, confirmation (AID 2044).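 Also: intracellular parasites grown in NIH/3T3 mouse fibroblasts as host cells; luminescent beta-galactosidase reporter signal from transgenic T. cruzi replicating inside host cells; inhibitors lower the luminescence signal.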 Format: functional, cell-based.
Assay [9] has as its target Bcl-2-like protein 1 (Homo sapiens, UniProt Q07817). As to the kind of experiment: blockers of BCLXL peptide binding – biochemical, fluorescence polarization, 1536-well, selectivity assay for MCL1 inhibitor project, dose response (AID 2218). For orientation: Polarisation of emitted light reports the rotation of a fluorescent probe.
Assay [10] has as its target Peroxisome proliferator-activated receptor gamma/Nuclear receptor coactivator 3 (Homo sapiens, UniProt P37231). Format: functional.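 Also: agonist potency for raising coactivator recruitment to the receptor.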
The target in assay [11] is Peroxisome proliferator-activated receptor gamma/Nuclear receptor coactivator 1 (Homo sapiens, UniProt P37231). Format: functional.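 Also: agonist potency as compounds enhance coactivator SRC-1 recruitment to PPARgamma.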
Assay [12] concerns the target Peroxisome proliferator-activated receptor gamma/Nuclear receptor coactivator 2 (Homo sapiens, UniProt P37231). Format: functional.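 Also: agonist potency for raising coactivator recruitment to the receptor.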
Assay [13] in a line: microbe, parasite or virus in culture. To be noted: Mycobacterium tuberculosis. Format: functional.
The nature of assay [14]: A High Throughput Confirmatory Assay used to Identify Novel Compounds that Inhibit Mycobacterium Tuberculosis in the absence of Glycerol. It is filed as functional.
Assay [15] can be described thus: blockers of HIV-1 envelope-mediated cell-cell fusion – cherry-pick, dose response (AID 652057). It is filed as functional, cell-based.
The target in assay [16] is Luciferin 4-monooxygenase (Photinus pyralis, UniProt P08659). As to the kind of experiment: Counter Screen for Luciferase-based Assay Positives. [Related pubchem assays: 620, 618, 411 ].
Assay [17] is described as follows: general cell-killing toxicity readout – plate reader, dry powder samples, cytotoxicity control for PAX8 inhibitor project, dose response (AID 743021). It is filed as functional, cell-based.
Assay [18] in a line: off-target signal loss in HeLa-CEM21 co-culture – HeLa F-luc CTL cells, cherry-picked, counter-screen for HIV-1 Env fusion inhibitor project, dose response (AID 652040).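 Also: potency for signal decrease marking cytotoxic or nonspecific inhibition.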 It is filed as functional, cell-based.
Assay [19] in a line: reduction of Shn3 3'UTR-driven luciferase in osteoblasts – cell-based, Clone20 osteoblasts, firefly luciferase, cherry-picked, dose response (AID 624132).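 Also: firefly luciferase luminescence from reporter carrying the Shn3 3'UTR in osteoblasts.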 Format: functional.
The nature of assay [20]: Luminescence-based counterscreen assay for KLF5 inhibitors: dose response cell-based high throughput screening assay to identify cytotoxic compounds using the IEC-6 intestinal epithelial cell line. [Related pubchem assays: 1700 (Primary screen.), 1834 (Confirmation screen.), 1858 (Summary AID.), 1905 (Counterscreen.)]. Format: functional.
Assay [21] in a line: HIV-1 AD8 envelope cell-cell fusion blockers – cherry-pick, dose response (AID 652062).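 Also: luciferase signal from cell-cell fusion driven by HIV-1 clade B AD8 Env; potency is for inhibitors of fusion seen as a drop in luminescence.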 It is filed as functional, cell-based.
The target of assay [22] is T1, Microphthalmia-associated transcription factor (Homo sapiens, UniProt O75030).
T1 sequence (O75030 whole entry): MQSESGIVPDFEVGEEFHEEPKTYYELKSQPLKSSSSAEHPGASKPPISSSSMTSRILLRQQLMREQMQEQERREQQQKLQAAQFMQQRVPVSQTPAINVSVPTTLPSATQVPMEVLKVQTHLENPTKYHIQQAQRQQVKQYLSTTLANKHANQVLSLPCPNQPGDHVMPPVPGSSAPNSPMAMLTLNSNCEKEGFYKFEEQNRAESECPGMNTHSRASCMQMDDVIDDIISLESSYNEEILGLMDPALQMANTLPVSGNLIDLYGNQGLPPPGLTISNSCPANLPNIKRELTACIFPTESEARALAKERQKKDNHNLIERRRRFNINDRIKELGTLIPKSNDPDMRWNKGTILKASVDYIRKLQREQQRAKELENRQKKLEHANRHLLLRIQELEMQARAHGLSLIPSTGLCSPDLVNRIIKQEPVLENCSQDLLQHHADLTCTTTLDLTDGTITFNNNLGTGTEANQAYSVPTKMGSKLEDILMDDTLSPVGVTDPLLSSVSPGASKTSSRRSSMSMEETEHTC
As to the kind of experiment: reducers of TRPM1 reporter luminescence, concentration series – cell-based, SK-MEL-5, cherry-picked, set 3, MITF inhibitor project, dose response (AID 493073).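 Also: SK-MEL-5 melanoma cells with luciferase driven by the MITF target TRPM1 promoter.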 It is filed as functional.

In assay [23] the target is T2, Heat shock factor protein 1 (Mus musculus, UniProt P38532).
T2 sequence (P38532 whole entry): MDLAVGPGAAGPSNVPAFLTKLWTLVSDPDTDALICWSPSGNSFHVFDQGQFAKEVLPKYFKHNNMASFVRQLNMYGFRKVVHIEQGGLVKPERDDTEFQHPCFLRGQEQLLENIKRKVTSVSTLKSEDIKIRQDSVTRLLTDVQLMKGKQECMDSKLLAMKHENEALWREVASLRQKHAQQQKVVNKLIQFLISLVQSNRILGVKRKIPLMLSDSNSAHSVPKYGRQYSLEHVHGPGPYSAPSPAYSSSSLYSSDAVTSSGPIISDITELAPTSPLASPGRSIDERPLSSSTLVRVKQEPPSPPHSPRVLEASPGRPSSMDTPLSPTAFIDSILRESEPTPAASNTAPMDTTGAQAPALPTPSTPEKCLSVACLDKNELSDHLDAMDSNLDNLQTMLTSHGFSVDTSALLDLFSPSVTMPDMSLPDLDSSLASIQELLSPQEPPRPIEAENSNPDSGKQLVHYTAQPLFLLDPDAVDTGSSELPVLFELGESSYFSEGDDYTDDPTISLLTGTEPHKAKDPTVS
As to the kind of experiment: decrease of HSF1-responsive luciferase luminescence – cell-based, NIH3T3, dose retest, confirmation (AID 2382).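 Also: NIH3T3 fibroblasts with HSF1-driven luciferase reporter stressed by proteasome inhibitor MG132; luminescence from HSF1-driven luciferase expression after 8 hours of MG132 stress.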 Format: functional.

A short description of assay [24]: blockers of HIV-1 ZM109 envelope-driven cell-cell fusion – HeLa effector, CEM target cells, luciferase, cherry-pick, dose response (AID 652058).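 Also: luciferase signal from HIV-1 Env mediated cell-cell fusion of effector and target cells.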 It is filed as functional, cell-based.
A short description of assay [25]: HEK-293T viability loss after treatment – luminescence, T-cell screen hits, cytotoxicity control for TCR NF-kB inhibitor project, dose response (AID 489026).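 Also: cells exposed to compound about 14 hours before the viability readout.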 Format: functional, cell-based.
Assay [26] in a line: Shn3 3'UTR reporter signal decrease – cell-based, Clone20 osteoblasts, firefly luciferase, cherry-pick, set 2, Schnurri-3 inhibitor project, dose response (AID 720490).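 Also: actives lower the luminescence signal as inhibitors.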 Format: functional.
Assay [27] addresses Paired box protein Pax-8 (Homo sapiens, UniProt Q06710). As to the kind of experiment: PAX8 transcriptional activity inhibition in RMG-I – RMG-I cells, luciferase, cherry-pick, dose response (AID 687027).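 Also: luciferase reporter driven by Pax8 target thyroperoxidase promoter measured by SteadyGlo luminescence.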 Format: functional, cell-based.
The test system of assay [28] is HT-1080. As to the kind of experiment: HT1080 cell viability loss – fluorescence readout (AID 620). It is filed as functional, cell-based. The settings on record: Homo sapiens.

Calls of active or inactive are those of the source. Bounds are passed on as bounds.

By IC50 is commonly meant the midpoint of a concentration-inhibition curve. The term AC50 denotes the midpoint of the concentration-response curve, whichever way the signal moves. What is called EC50 is the concentration that produces a half-maximal response.

Chain of Paired box protein Pax-8 (Q06710 whole entry): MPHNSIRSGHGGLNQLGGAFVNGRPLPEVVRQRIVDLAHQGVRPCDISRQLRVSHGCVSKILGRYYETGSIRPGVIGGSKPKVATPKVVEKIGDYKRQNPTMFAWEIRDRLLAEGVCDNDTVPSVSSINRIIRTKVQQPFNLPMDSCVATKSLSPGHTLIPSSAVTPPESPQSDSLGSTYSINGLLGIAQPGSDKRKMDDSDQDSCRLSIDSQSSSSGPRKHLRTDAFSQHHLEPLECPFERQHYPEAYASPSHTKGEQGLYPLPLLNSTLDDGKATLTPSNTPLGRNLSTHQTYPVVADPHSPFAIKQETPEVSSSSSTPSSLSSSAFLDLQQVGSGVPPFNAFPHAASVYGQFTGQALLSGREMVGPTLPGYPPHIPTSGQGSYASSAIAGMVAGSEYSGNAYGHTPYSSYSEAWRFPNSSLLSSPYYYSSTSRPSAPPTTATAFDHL
Chain of Peroxisome proliferator-activated receptor gamma/Nuclear receptor coactivator 1 (P37231 whole entry): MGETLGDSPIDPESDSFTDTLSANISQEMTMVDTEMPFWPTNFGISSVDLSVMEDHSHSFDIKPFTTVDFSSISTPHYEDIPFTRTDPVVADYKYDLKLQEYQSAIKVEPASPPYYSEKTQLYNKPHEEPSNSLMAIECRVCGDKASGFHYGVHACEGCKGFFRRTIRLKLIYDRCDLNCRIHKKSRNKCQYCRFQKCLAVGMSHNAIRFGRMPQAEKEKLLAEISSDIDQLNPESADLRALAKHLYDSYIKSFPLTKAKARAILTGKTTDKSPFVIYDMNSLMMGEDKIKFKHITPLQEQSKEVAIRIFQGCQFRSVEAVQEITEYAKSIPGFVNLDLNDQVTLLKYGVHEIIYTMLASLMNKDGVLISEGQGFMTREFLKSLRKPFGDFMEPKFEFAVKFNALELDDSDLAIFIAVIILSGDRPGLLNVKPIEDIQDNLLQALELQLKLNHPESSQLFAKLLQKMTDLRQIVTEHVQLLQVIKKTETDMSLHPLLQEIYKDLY
Chain of Peroxisome proliferator-activated receptor gamma/Nuclear receptor coactivator 1 (Q15788 whole entry, further chain): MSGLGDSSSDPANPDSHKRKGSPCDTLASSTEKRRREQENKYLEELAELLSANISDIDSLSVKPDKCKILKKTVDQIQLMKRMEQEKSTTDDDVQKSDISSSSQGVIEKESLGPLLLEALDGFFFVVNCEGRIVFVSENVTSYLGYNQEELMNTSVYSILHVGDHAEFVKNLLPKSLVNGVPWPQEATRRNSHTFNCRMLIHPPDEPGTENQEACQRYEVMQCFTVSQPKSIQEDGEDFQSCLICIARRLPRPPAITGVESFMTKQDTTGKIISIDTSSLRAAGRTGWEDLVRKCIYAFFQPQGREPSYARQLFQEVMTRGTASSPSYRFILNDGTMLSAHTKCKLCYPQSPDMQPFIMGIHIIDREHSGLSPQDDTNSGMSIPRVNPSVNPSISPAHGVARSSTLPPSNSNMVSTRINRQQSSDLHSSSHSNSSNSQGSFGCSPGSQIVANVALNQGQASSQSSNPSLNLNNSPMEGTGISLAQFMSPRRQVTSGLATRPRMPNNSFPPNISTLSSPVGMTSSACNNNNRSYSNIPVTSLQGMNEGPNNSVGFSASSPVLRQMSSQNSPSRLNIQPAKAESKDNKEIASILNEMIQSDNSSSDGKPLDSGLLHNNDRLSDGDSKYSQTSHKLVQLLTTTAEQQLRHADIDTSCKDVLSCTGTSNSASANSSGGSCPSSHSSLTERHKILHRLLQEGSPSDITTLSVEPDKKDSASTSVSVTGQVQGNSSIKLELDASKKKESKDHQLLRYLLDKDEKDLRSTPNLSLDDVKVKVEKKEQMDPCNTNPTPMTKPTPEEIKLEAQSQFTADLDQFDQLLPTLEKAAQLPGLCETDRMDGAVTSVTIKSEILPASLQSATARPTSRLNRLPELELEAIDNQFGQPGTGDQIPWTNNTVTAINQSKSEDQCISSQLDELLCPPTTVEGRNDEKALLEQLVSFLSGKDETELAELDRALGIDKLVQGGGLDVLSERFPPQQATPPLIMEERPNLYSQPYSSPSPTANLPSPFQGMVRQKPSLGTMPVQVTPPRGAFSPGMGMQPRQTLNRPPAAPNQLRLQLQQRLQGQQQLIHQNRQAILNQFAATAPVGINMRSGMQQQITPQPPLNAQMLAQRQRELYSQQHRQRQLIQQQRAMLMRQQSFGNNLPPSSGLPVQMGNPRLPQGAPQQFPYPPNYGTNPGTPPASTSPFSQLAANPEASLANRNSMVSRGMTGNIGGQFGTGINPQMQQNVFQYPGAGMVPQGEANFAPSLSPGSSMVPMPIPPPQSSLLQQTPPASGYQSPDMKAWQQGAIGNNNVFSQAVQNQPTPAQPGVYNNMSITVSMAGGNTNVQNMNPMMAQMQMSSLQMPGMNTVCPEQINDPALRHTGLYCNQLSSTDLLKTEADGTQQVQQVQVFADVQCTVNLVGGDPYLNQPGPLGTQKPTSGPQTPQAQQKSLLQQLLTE
Chain of Peroxisome proliferator-activated receptor gamma/Nuclear receptor coactivator 2 (P37231 whole entry): as the sequence (P37231 whole entry) above
Chain of Peroxisome proliferator-activated receptor gamma/Nuclear receptor coactivator 2 (Q15596 whole entry, further chain): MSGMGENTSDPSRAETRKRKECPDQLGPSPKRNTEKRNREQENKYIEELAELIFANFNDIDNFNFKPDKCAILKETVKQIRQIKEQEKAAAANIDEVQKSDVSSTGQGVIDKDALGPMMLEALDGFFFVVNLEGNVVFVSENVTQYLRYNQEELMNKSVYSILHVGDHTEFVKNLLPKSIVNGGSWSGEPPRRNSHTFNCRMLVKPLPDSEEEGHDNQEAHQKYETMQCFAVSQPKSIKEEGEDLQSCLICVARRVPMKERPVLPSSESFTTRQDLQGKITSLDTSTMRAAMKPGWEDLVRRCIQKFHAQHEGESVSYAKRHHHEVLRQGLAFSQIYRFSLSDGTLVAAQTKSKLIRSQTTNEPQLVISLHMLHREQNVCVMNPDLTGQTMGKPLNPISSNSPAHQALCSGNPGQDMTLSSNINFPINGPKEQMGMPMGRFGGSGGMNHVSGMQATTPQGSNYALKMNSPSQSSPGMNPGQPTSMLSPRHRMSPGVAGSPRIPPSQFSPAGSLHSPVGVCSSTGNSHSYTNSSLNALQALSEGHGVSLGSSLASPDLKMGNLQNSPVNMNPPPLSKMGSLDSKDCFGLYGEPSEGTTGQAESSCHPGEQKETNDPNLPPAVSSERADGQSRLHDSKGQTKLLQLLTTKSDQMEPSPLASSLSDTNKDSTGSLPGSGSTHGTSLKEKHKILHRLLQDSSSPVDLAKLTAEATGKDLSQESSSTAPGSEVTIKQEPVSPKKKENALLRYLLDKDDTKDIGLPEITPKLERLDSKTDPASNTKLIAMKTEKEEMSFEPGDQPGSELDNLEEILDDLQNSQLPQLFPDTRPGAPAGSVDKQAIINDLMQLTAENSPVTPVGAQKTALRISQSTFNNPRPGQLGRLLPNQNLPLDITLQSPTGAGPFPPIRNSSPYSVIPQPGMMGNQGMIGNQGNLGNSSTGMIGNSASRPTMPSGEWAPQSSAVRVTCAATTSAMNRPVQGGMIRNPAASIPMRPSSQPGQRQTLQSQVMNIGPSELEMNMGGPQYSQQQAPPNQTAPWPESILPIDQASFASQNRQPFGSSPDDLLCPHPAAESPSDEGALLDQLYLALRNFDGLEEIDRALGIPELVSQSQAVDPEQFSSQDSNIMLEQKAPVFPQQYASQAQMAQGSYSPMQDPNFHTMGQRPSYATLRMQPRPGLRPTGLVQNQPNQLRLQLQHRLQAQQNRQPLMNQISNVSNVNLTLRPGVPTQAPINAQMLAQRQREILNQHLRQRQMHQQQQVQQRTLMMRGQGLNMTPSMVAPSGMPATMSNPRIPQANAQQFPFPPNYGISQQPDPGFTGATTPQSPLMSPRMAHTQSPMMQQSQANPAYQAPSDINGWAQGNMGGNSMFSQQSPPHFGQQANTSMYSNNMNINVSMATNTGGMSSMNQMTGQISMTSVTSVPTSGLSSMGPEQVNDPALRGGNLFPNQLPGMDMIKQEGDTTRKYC
Chain of Latent membrane protein 1 (P03230 whole entry): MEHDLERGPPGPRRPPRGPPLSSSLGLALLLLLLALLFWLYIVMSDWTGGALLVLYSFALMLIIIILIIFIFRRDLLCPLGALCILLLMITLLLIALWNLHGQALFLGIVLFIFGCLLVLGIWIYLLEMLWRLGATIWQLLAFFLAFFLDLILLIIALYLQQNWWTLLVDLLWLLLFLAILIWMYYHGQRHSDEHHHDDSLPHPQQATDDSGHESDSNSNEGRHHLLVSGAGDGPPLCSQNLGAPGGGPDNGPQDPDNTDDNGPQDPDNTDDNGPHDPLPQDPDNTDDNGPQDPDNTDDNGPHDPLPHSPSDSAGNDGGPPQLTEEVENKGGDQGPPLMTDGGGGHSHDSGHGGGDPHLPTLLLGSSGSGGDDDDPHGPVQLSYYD
Chain of Bcl-2-like protein 1 (Q07817 whole entry): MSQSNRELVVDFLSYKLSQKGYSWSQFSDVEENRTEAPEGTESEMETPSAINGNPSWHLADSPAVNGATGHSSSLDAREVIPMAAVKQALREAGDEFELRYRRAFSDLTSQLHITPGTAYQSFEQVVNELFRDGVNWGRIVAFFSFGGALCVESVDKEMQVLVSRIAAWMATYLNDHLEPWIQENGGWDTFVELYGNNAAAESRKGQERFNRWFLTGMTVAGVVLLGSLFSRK

Regarding `O=C(CSC1=NCCS1)Nc1ccc2ccccc2c1`, the IC50 in [1] is > 100 µM (active).
For the molecule `Nc1ccc(C(=O)N/N=C\c2cc(N=Nc3cccc4ccccc34)ccc2O)cc1`, the AC50 in assay [2] was 11.1 µM (active); in assay [6], 30.2 µM (active). Moreover, the 50% effective concentration (EC50) in assay [3] is > 350 µM (not active); in assay [4] it was 7.62 µM (active); in [5] it was 7.41 µM (active); in assay [8] it was 1.12 µM (active). Further, the IC50 in [7] was 6.83 µM (active); in assay [9], > 109 µM (not active).
`O=C(COc1ccccc1-c1ccccc1)NCc1ccco1`: the concentration for a half-maximal effect (EC50) in [10], in assay [11] and in assay [12] was > 79.4 µM (not active) in each case.
With `Cc1ccc(-c2noc(=O)n2CC(=O)c2ccc(Cl)cc2)cc1`, the CC50 in assay [13] was > 40 µM (active). For the same molecule, in [14], the IC50 was > 50 µM (active).
Regarding `Cc1ccc(C(=O)Nc2cnc3ccccc3c2)cc1`, the AC50 in assay [15] was 2.29 µM (active); in assay [17], 46 µM (active); in assay [18], 9.31 µM (active); in [19] it was 4.04 µM (active); in assay [21], 4.14 µM (active); in [22] it was 1.15 µM (active). In addition, the values for the concentration at half-maximal activity (AC50) in assay [24], in assay [26] and in [27] were 13.9 µM (active), 2.3 µM (active) and 3.57 µM (active), respectively. For the same molecule, the figures for the half-maximal effective concentration (EC50) in [16], in [23] and in assay [28] were > 100 µM (not active), 4.76 µM (active) and > 50 µM (not active), respectively. Besides, the 50% inhibitory concentration (IC50) in [20] is > 39.8 µM (not active); in assay [25], > 80 µM (inactive).

The values are drawn from ChEMBL document CHEMBL1201862, “PubChem BioAssay data set” (2004).
